In publication PMC10214534, “Enzymatic Fluoromethylation Enabled by the S-Adenosylmethionine Analog Te-Adenosyl-L-(fluoromethyl)homotellurocysteine” (ACS Central Science, 2023):

What was measured:
Type in all cases: biochemical
TPMT [1] = target: T1, TPMT (Homo sapiens, UniProt P51580); assay: methyl transfer kinetics; settings: methyl donor; thiol co-substrate as in Table 1
T1 construct: construct only in supplement
T1 sequence (P51580 1-245): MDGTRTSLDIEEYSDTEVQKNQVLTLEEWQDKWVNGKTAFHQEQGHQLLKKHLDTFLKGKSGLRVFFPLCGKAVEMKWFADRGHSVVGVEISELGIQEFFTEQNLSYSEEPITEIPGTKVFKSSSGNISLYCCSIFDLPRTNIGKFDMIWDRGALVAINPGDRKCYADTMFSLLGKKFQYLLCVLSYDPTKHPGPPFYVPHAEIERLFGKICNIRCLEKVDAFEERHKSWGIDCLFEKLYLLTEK

CFA synthase = target: T2, CFA synthase (Escherichia coli, UniProt P0A9H7); assay: turnover, LC-MS/MS and […]-NMR; settings: fluoromethyl donor; co-substrate dOPG
T2 construct: construct only in supplement

TPMT [2] = target: T1, TPMT; assay: fluoromethyl transfer kinetics; settings: fluoromethyl donor; thiol co-substrate as in Table 1

T2 sequence (P0A9H7 2-382): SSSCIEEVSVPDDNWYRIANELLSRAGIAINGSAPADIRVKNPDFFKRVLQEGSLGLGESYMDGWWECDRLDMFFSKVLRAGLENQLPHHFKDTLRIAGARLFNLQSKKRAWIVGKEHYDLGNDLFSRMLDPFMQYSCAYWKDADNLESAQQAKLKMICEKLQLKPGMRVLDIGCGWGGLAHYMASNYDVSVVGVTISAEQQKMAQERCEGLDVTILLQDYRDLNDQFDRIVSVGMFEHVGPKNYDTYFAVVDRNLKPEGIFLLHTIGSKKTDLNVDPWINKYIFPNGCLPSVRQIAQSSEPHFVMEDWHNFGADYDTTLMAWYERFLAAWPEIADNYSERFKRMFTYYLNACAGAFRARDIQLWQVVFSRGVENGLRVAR

Row | SMILES | Km (TPMT [1]) | turnover, LC-MS/MS and 19F-NMR (CFA synthase) | Km (TPMT [2])
1 | C[S+](CC[C@H](N)C(=O)O)C[C@H]1O[C@@H](n2cnc3c(N)ncnc32)[C@H](O)[C@@H]1O (stereo partly drawn) [SAM] | the Km for FMeTeSAM is nearly the same as that for SAM | – | –
2 | Nc1ncnc2c1ncn2[C@@H]1O[C@H](C[Te+](CF)CC[C@H](N)C(=O)O)[C@@H](O)[C@H]1O [FMeTeSAM] | – | E. coli CFA synthase can use FMeTeSAM to catalyze cyclopropanation | the Km for FMeTeSAM is nearly the same as that for SAM
